Test results taken from patent US12643871B2, “Aryl formamide compound containing chiral sulfur oxide or salt thereof, preparation method, herbicidal composition and use thereof” (Qingdao Kingagroot Chemical Compound Co., Ltd., priority 2019, dated 2026).

Legend:
Assay in all cases: Weeding effect in post-emergence stage
Format in all cases: in vivo
Settings in all cases: 250 g/ha; 2 leaf stage; 15 days after application; fresh weight control rate
[1] = tested on: Digitaria sanguinalis
In short: (§1)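 Post-emergence spray, 2-leaf stage; doses 500–15 g/ha; acetone + Tween 80 + methyl oleate EC (1.5 L/ha) as synergist. Greenhouse 15 d. Readout: fresh weight control rate graded levels 0–5 (5 = above 85%, 0 = below 5%); triplicate means.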

[2] = tested on: Echinochloa crusgali
In short: as §1

[3] = tested on: Abutilon theophrasti
In short: as §1

[4] = tested on: Setaria viridis
In short: as §1

[5] = tested on: Amaranthus retroflexus
In short: as §1

SMILES | weeding effect in post-emergence stage, activity level (growth control rate), Digitaria sanguinalis [1] | weeding effect in post-emergence stage, activity level (growth control rate), Echinochloa crusgali [2] | weeding effect in post-emergence stage, activity level (growth control rate), Abutilon theophrasti [3] | weeding effect in post-emergence stage, activity level (growth control rate), Setaria viridis [4] | weeding effect in post-emergence stage, activity level (growth control rate), Amaranthus retroflexus [5]
Cc1nnc(NC(=O)c2ccc(C(F)(F)F)c([S@+]([O-])CCCC#N)c2F)o1 [Compound 53] | 5 (Level 5: growth control rate is above 85%) | 5 (Level 5: growth control rate is above 85%) | 5 (Level 5: growth control rate is above 85%) | 5 (Level 5: growth control rate is above 85%) | 5 (Level 5: growth control rate is above 85%)
Cc1nnc(NC(=O)c2ccc(C(F)(F)F)c([S@+]([O-])CCCO)c2F)o1 [Compound 55] | 5 (Level 5: growth control rate is above 85%) | 5 (Level 5: growth control rate is above 85%) | 5 (Level 5: growth control rate is above 85%) | 5 (Level 5: growth control rate is above 85%) | 5 (Level 5: growth control rate is above 85%)
Cc1nnc(NC(=O)c2ccc(C(F)(F)F)c([S@+]([O-])CC(C)O)c2F)o1 (some centres unmarked) [Compound 56] | 5 (Level 5: growth control rate is above 85%) | 5 (Level 5: growth control rate is above 85%) | 5 (Level 5: growth control rate is above 85%) | 5 (Level 5: growth control rate is above 85%) | 5 (Level 5: growth control rate is above 85%)
Cc1nnc(NC(=O)c2ccc(C(F)(F)F)c([S@+]([O-])CCCN)c2F)o1 [Compound 57] | 5 (Level 5: growth control rate is above 85%) | 5 (Level 5: growth control rate is above 85%) | 5 (Level 5: growth control rate is above 85%) | 5 (Level 5: growth control rate is above 85%) | 5 (Level 5: growth control rate is above 85%)
CCOC[S+]([O-])c1c(C(F)(F)F)ccc(C(=O)Nc2nnc(C)o2)c1F (centres unmarked) [Compound 70] | 5 (Level 5: growth control rate is above 85%) | 5 (Level 5: growth control rate is above 85%) | 5 (Level 5: growth control rate is above 85%) | 5 (Level 5: growth control rate is above 85%) | 5 (Level 5: growth control rate is above 85%)
COC(C)[S+]([O-])c1c(C(F)(F)F)ccc(C(=O)Nc2nnc(C)o2)c1F (centres unmarked) [Compound 71] | 5 (Level 5: growth control rate is above 85%) | 5 (Level 5: growth control rate is above 85%) | 5 (Level 5: growth control rate is above 85%) | 5 (Level 5: growth control rate is above 85%) | 5 (Level 5: growth control rate is above 85%)
COCC[S@@+]([O-])c1c(C(F)(F)F)ccc(C(=O)Nc2nnc(C)o2)c1F [Compound 72] | 5 (Level 5: growth control rate is above 85%) | 5 (Level 5: growth control rate is above 85%) | 5 (Level 5: growth control rate is above 85%) | 5 (Level 5: growth control rate is above 85%) | 5 (Level 5: growth control rate is above 85%)
CCOCC[S@@+]([O-])c1c(C(F)(F)F)ccc(C(=O)Nc2nnc(C)o2)c1F [Compound 73] | 5 (Level 5: growth control rate is above 85%) | 5 (Level 5: growth control rate is above 85%) | 5 (Level 5: growth control rate is above 85%) | 5 (Level 5: growth control rate is above 85%) | 5 (Level 5: growth control rate is above 85%)
COC(C)C[S@@+]([O-])c1c(C(F)(F)F)ccc(C(=O)Nc2nnc(C)o2)c1F (some centres unmarked) [Compound 74] | 5 (Level 5: growth control rate is above 85%) | 5 (Level 5: growth control rate is above 85%) | 5 (Level 5: growth control rate is above 85%) | 5 (Level 5: growth control rate is above 85%) | 5 (Level 5: growth control rate is above 85%)
COCCC[S@@+]([O-])c1c(C(F)(F)F)ccc(C(=O)Nc2nnc(C)o2)c1F [Compound 75] | 5 (Level 5: growth control rate is above 85%) | 5 (Level 5: growth control rate is above 85%) | 5 (Level 5: growth control rate is above 85%) | 5 (Level 5: growth control rate is above 85%) | 5 (Level 5: growth control rate is above 85%)
Cc1nnc(NC(=O)c2ccc(C(F)(F)F)c([S@+]([O-])CCOC(F)F)c2F)o1 [Compound 164] | 5 (Level 5: growth control rate is above 85%) | 5 (Level 5: growth control rate is above 85%) | 5 (Level 5: growth control rate is above 85%) | 5 (Level 5: growth control rate is above 85%) | 5 (Level 5: growth control rate is above 85%)
Cc1nnc(NC(=O)c2ccc(C(F)(F)F)c([S@+]([O-])CCOC(F)(F)F)c2F)o1 [Compound 165] | 5 (Level 5: growth control rate is above 85%) | 5 (Level 5: growth control rate is above 85%) | 5 (Level 5: growth control rate is above 85%) | 5 (Level 5: growth control rate is above 85%) | 5 (Level 5: growth control rate is above 85%)
CCC(=O)[S+]([O-])c1c(C(F)(F)F)ccc(C(=O)Nc2nnc(C)o2)c1F (centres unmarked) [Compound 167] | 5 (Level 5: growth control rate is above 85%) | 5 (Level 5: growth control rate is above 85%) | 5 (Level 5: growth control rate is above 85%) | 5 (Level 5: growth control rate is above 85%) | 5 (Level 5: growth control rate is above 85%)
Cc1nnc(NC(=O)c2ccc(C(F)(F)F)c([S@@+]([O-])C(=O)CC(F)(F)F)c2F)o1 [Compound 169] | 5 (Level 5: growth control rate is above 85%) | 5 (Level 5: growth control rate is above 85%) | 5 (Level 5: growth control rate is above 85%) | 5 (Level 5: growth control rate is above 85%) | 5 (Level 5: growth control rate is above 85%)
CSC[S@+]([O-])c1c(C(F)(F)F)ccc(C(=O)Nc2nnc(C)o2)c1F [Compound 203] | 5 (Level 5: growth control rate is above 85%) | 5 (Level 5: growth control rate is above 85%) | 5 (Level 5: growth control rate is above 85%) | 5 (Level 5: growth control rate is above 85%) | 5 (Level 5: growth control rate is above 85%)
CSCC[S@@+]([O-])c1c(C(F)(F)F)ccc(C(=O)Nc2nnc(C)o2)c1F [Compound 204] | 5 (Level 5: growth control rate is above 85%) | 5 (Level 5: growth control rate is above 85%) | 5 (Level 5: growth control rate is above 85%) | 5 (Level 5: growth control rate is above 85%) | 5 (Level 5: growth control rate is above 85%)
